Source: ChEMBL document CHEMBL6182873, “Fungal dimeric xanthones as anticancer agents by novelly stimulating sodium-calcium exchanger 1” (Eur J Med Chem, 2025)
Activity calls are given as the source filed them. No cut-off for these calls is given here.

Experiments:
AGS [1] = assay: Anti-proliferative activity against human AGS cells assessed as inhibition of cell viability incubated for 48 hrs by CCK8 assay; type: functional, cell-based
AGS [2] = assay: Potency index, ratio of cisplatin IC50 to test compound IC50 for anti-proliferative activity against human AGS cells assessed as inhibition of cell viability incubated for 48 hrs by CCK8 assay; type: functional
GES1 = assay: Anti-proliferative activity against human GES1 cells; type: toxicity, cell-based
Gastric cancer cell = assay: Anti-proliferative activity against human gastric cancer cells assessed as reduction in cell proliferation at 10 to 40 uM; type: functional, cell-based; conditions: dose 10-40 µM
AGS [3] = assay: Induction of apoptosis in human AGS cells assessed as early apoptotic cells at 5 uM by Annexin V-FITC/PI staining based flow cytometry (reference value: 4.25 %); type: functional
AGS [4] = assay: Induction of cell cycle arrest in human AGS cells assessed as cell accumulation at G2 phase at 5 uM by PI staining based flow cytometry (reference value: 25.7 %); type: functional
AGS [5] = assay: Induction of apoptosis in human AGS cells assessed as viable cells at 5 uM by Annexin V-FITC/PI staining based flow cytometry (reference value: 94.1 %); type: functional; conditions: read-out: Activity
AGS [6] = assay: Induction of apoptosis in human AGS cells assessed as late apoptotic cells at 5 uM by Annexin V-FITC/PI staining based flow cytometry (reference value: 1.43 %); type: functional
[7] = target: Sodium/calcium exchanger 1 (Homo sapiens) (UniProt P32418); assay: Activation of NCX1 in human AGS cells assessed as induction of membrane currents at 5 uM in presence of extracellular Fluo4-Ca2+ by cell imaging analysis; type: cell-based; conditions: filed as activator
AGS [8] = assay: Effect on ERK1/2 level in human AGS cells up to 10 uM by Western blot analysis; type: functional, cell-based
B16 [9] = assay: Antiproliferative activity against mouse B16 cells assessed as inhibition of cell viability; type: functional, cell-based
B16 [10] = assay: Activation of NCX1 in mouse B16 cells harboring shNCX1 assessed as increase in intracellular Fluo4-Ca2+ level at 5 uM in presence of extracellular Fluo4-Ca2+ by cell imaging analysis; type: cell-based
B16 [11] = assay: Activation of NCX1 in mouse B16 cells assessed as increase in intracellular Fluo4-Ca2+ level at 5 uM in presence of extracellular Fluo4-Ca2+ by cell imaging analysis; type: cell-based; conditions: filed as activator
[12] = target: Sodium/calcium exchanger 1 (Homo sapiens) (UniProt P32418); assay: Activation of NCX1 in human AGS cells harboring shNCX1 assessed as increase in intracellular Fluo4-Ca2+ level at 5 uM in presence of extracellular Fluo4-Ca2+ by cell imaging analysis; type: cell-based
[13] = target: Sodium/calcium exchanger 1 (Homo sapiens) (UniProt P32418); assay: Activation of NCX1 in human DLD-1 cells assessed as increase in intracellular Fluo4-Ca2+ level at 5 uM in presence of extracellular Fluo4-Ca2+ by cell imaging analysis; type: cell-based
AGS [14] = assay: Induction of apoptosis in human AGS cells assessed as early apoptotic cells at 20 uM by Annexin V-FITC/PI staining based flow cytometry (reference value: 4.25 %); type: functional
AGS [15] = assay: Induction of apoptosis in human AGS cells assessed as necrotic cells at 20 uM by Annexin V-FITC/PI staining based flow cytometry (reference value: 0.20 %); type: functional
AGS [16] = assay: Induction of apoptosis in human AGS cells assessed as late apoptotic cells at 10 uM by Annexin V-FITC/PI staining based flow cytometry (reference value: 1.43 %); type: functional
AGS [17] = assay: Downregulation of PI3K level in human AGS cells by Western blot analysis; type: functional, cell-based; conditions: dose <= 10.0 µM
AGS [18] = assay: Downregulation of beta-catenin level in human AGS cells at 5 uM in presence of SN 6 by Western blot analysis; type: functional, cell-based
AGS [19] = assay: Induction of apoptosis in human AGS cells assessed as necrotic cells at 5 uM by Annexin V-FITC/PI staining based flow cytometry (reference value: 0.20 %); type: functional
AGS [20] = assay: Downregulation of AKT level in human AGS cells at 5 uM in presence of SN 6 by Western blot analysis; type: functional, cell-based
AGS [21] = assay: Inhibition of cell migration in human AGS cells at 5 uM incubated up to 24 hrs by scratch wound healing assay; type: functional, cell-based
AGS [22] = assay: Induction of apoptosis in human AGS cells assessed as late apoptotic cells at 20 uM by Annexin V-FITC/PI staining based flow cytometry (reference value: 1.43 %); type: functional
AGS [23] = assay: Downregulation of AKT level in human AGS cells by Western blot analysis; type: functional, cell-based; conditions: dose <= 10.0 µM
AGS [24] = assay: Induction of cell cycle arrest in human AGS cells assessed as cell accumulation at G1 phase at 5 uM by PI staining based flow cytometry (reference value: 41.9 %); type: functional
[25] = target: Sodium/calcium exchanger 1 (Homo sapiens) (UniProt P32418); assay: Activation of NCX1 in human AGS cells assessed as increase in intracellular Fluo4-Ca2+ level at 5 uM in presence of extracellular Fluo4-Ca2+ by cell imaging analysis; type: cell-based; conditions: filed as activator
B16 [26] = assay: Activation of NCX1 in mouse B16 cells assessed as increase in intracellular Fluo4-Ca2+ level at 5 uM in presence of extracellular Fluo4-Ca2+/SN 6 by cell imaging analysis; type: cell-based
AGS [27] = assay: Downregulation of beta-catenin level in human AGS cells by Western blot analysis; type: functional, cell-based; conditions: dose <= 10.0 µM
AGS [28] = assay: Induction of apoptosis in human AGS cells assessed as early apoptotic cells at 10 uM by Annexin V-FITC/PI staining based flow cytometry (reference value: 4.25 %); type: functional
AGS [29] = assay: Induction of apoptosis in human AGS cells assessed as viable cells at 20 uM by Annexin V-FITC/PI staining based flow cytometry (reference value: 94.1 %); type: functional; conditions: read-out: Activity
B16 [30] = assay: Antitumor activity against mouse B16 cells implanted in nude mouse at 2.5 to 5 mg/kg, ip; type: functional, organism-based; conditions: dose 2.5-5 mg/kg
[31] = target: Sodium/calcium exchanger 1 (Homo sapiens) (UniProt P32418); assay: Activation of NCX1 in human AGS cells assessed as increase in intracellular Fluo4-Ca2+ level at 5 uM in presence of extracellular Fluo4-Ca2+/SN6 by cell imaging analysis; type: cell-based
AGS [32] = assay: Inhibition of cell migration in human AGS cells at 5 uM by transwell assay; type: functional, cell-based
AGS [33] = assay: Induction of cell cycle arrest in human AGS cells assessed as cell accumulation at S phase at 5 uM by PI staining based flow cytometry (reference value: 32.4 %); type: functional
AGS [34] = assay: Induction of apoptosis in human AGS cells assessed as viable cells at 10 uM by Annexin V-FITC/PI staining based flow cytometry (reference value: 94.1 %); type: functional; conditions: read-out: Activity
[35] = target: Sodium/calcium exchanger 1 (Homo sapiens) (UniProt P32418); assay: Activation of NCX1 in human AGS cells assessed as induction of membrane currents at 5 uM in presence of extracellular Fluo4-Ca2+/SN6 by cell imaging analysis; type: cell-based
AGS [36] = assay: Downregulation of PI3K level in human AGS cells at 5 uM in presence of SN 6 by Western blot analysis; type: functional, cell-based
AGS [37] = assay: Induction of apoptosis in human AGS cells assessed as necrotic cells at 10 uM by Annexin V-FITC/PI staining based flow cytometry (reference value: 0.20 %); type: functional

Sodium/calcium exchanger 1 (Homo sapiens), sequence (P32418 36-973 limits assumed): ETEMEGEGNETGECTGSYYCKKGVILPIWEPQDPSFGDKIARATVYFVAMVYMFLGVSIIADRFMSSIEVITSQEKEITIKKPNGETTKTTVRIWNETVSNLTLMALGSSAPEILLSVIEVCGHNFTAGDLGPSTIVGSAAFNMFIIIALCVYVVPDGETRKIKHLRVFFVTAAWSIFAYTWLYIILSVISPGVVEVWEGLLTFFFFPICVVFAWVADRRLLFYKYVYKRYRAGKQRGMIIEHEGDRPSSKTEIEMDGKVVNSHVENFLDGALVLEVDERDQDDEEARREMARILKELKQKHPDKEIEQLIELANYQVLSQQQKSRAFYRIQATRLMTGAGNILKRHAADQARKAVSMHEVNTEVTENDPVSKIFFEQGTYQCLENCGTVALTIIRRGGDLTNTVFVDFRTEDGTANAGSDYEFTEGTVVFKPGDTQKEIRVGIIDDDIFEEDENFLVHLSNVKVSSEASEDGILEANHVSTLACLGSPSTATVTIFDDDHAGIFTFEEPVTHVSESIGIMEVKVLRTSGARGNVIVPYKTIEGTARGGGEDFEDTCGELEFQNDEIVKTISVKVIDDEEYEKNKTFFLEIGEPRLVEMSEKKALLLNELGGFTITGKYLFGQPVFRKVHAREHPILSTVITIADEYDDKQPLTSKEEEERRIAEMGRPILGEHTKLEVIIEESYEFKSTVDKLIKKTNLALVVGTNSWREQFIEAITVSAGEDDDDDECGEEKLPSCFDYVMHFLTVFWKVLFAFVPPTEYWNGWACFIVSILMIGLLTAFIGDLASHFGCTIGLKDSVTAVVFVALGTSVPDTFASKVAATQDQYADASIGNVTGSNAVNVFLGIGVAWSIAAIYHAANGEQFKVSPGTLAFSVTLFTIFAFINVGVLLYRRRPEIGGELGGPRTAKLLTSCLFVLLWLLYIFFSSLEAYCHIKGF

SMILES: CC(=O)O[C@H]1[C@@H](C)CC(O)=C2C(=O)c3c(O)ccc(-c4ccc5c(c4O)C(=O)C[C@](CO)([C@H]4OC(=O)C[C@@H]4C)O5)c3O[C@]21CO
- IC50 (AGS [1]; Homo sapiens, AGS, 48 h): 2.65 µM
- Ratio IC50 (AGS [2]): 2
- Activity (GES1): Non-toxic

SMILES: CC(=O)O[C@H]1[C@@H](C)CC(O)=C2C(=O)c3c(ccc(-c4ccc5c(c4O)C(=O)C4=C(O)C[C@H](C)[C@H](OC(C)=O)[C@]4(CO)O5)c3O)O[C@]21CO
- Activity (Gastric cancer cell): Active
- IC50 (AGS [1]; Homo sapiens, AGS, 48 h): 3.45 µM
- Ratio IC50 (AGS [2]): 2
- Activity (GES1): Non-toxic

SMILES: CC(=O)OC[C@@]12Oc3c(-c4ccc5c(c4O)C(=O)C4=C(O)C[C@H](C)[C@H](OC(C)=O)[C@]4(CO)O5)ccc(O)c3C(=O)C1=C(O)C[C@H](C)[C@@H]2OC(C)=O (stereo in doubt; 3) [listing 1 of 2 here]
- IC50 (AGS [1]; ags): 3.89 µM

SMILES: CC(=O)OC[C@@]12Oc3c(-c4ccc(O)c5c4O[C@]4(CO)C(=C(O)C[C@H](C)[C@@H]4OC(C)=O)C5=O)ccc(O)c3C(=O)C1=C(O)C[C@H](C)[C@@H]2OC(C)=O
- Activity (AGS [3]): 5.57%
- Activity (AGS [4]): 24.9%
- viability at 5 µM (AGS [5]): 91.8%
- Activity (AGS [6]): 2.54%
- Activity [7]: Active
- Activity (AGS [8]): No effect
- IC50 (B16 [9]): 5.36 µM
- Activity (B16 [10]): inactive
- Activity (B16 [11]): Active
- Activity (Gastric cancer cell): Active
- Activity [12]: inactive
- Activity [13]: inactive
- Activity (AGS [14]): 16.6%
- Activity (AGS [15]): 0.18%
- Activity (AGS [16]): 2.01%
- Activity (AGS [17]): Dose-dependent-effect
- IC50 (AGS [1]; Homo sapiens, AGS, 48 h): 5.2 µM
- Activity (AGS [18]): inactive
- Activity (AGS [19]): 0.13%
- Activity (AGS [20]): inactive
- inhibition (AGS [21]): Active
- Activity (AGS [22]): 5.94%
- Activity (AGS [23]): Dose-dependent-effect
- Activity (AGS [24]): 48.8%
- Activity [25]: Active
- Ratio IC50 (AGS [2]): 2
- Activity (B16 [26]): inactive
- Activity (AGS [27]): Dose-dependent-effect
- Activity (AGS [28]): 4.24%
- viability at 20 µM (AGS [29]): 77.3%
- Activity (B16 [30]): Active; Activity Was Much Greater Than Cisplatin
- Activity [31]: inactive
- inhibition (AGS [32]): Active
- Activity (AGS [33]): 26.3%
- viability at 10 µM (AGS [34]): 93.7%
- Activity [35]: inactive
- Activity (AGS [36]): inactive
- Activity (GES1): Non-toxic
- Activity (AGS [37]): 0.094%

SMILES: CC(=O)O[C@H]1[C@@H](C)CC(O)=C2C(=O)c3c(ccc(-c4ccc(O)c5c4O[C@]4(CO)C(=C(O)C[C@H](C)[C@@H]4OC(C)=O)C5=O)c3O)O[C@]21CO
- Activity (Gastric cancer cell): Active
- IC50 (AGS [1]; Homo sapiens, AGS, 48 h): 3.06 µM
- Ratio IC50 (AGS [2]): 2
- Activity (GES1): Non-toxic

SMILES: CC(=O)OC[C@@]12Oc3c(-c4ccc5c(c4O)C(=O)C4=C(O)C[C@H](C)[C@H](OC(C)=O)[C@]4(CO)O5)ccc(O)c3C(=O)C1=C(O)C[C@H](C)[C@@H]2OC(C)=O (stereo in doubt; 3) [listing 2 of 2 here]
- Activity [7]: Active
- Activity (Gastric cancer cell): Active
- Activity [12]: inactive
- Activity [13]: inactive
- Activity [31]: inactive
- Activity [35]: inactive

SMILES: CC(=O)OC[C@@]12Oc3ccc(-c4ccc5c(c4O)C(=O)C4=C(O)C[C@H](C)[C@H](OC(C)=O)[C@]4(CO)O5)c(O)c3C(=O)C1=C(O)C[C@H](C)[C@@H]2OC(C)=O
- Activity (Gastric cancer cell): Active
- IC50 (AGS [1]; Homo sapiens, AGS, 48 h): 3.47 µM
- Ratio IC50 (AGS [2]): 2
- Activity (GES1): Non-toxic

SMILES: CC(=O)OC[C@@]12Oc3c(-c4ccc5c(c4O)C(=O)C4=C(O)C[C@H](C)[C@H](OC(C)=O)[C@]4(CO)O5)ccc(O)c3C(=O)C1=C(O)C[C@H](C)[C@@H]2OC(C)=O (stereo in doubt; 2) [listing 1 of 2 here]
- Activity (Gastric cancer cell): Active

SMILES: CC(=O)O[C@H]1[C@@H](C)CC(O)=C2C(=O)c3c(O)ccc(-c4ccc(O)c5c4O[C@]4(CO)C(=C(O)C[C@H](C)[C@@H]4OC(C)=O)C5=O)c3O[C@]21CO
- Activity (Gastric cancer cell): Active
- IC50 (AGS [1]; Homo sapiens, AGS, 48 h): 13.8 µM
- Ratio IC50 (AGS [2]): 2
- Activity (GES1): Non-toxic

SMILES: CC(=O)OC[C@@]12Oc3ccc(-c4ccc5c(c4O)C(=O)C4=C(O)C[C@H](C)[C@H](OC(C)=O)[C@]4(COC(C)=O)O5)c(O)c3C(=O)C1=C(O)C[C@H](C)[C@@H]2OC(C)=O
- Activity (Gastric cancer cell): Active
- IC50 (AGS [1]; Homo sapiens, AGS, 48 h): 6.23 µM
- Ratio IC50 (AGS [2]): 2
- Activity (GES1): Non-toxic

SMILES: CC(=O)OC[C@@]12Oc3c(-c4ccc5c(c4O)C(=O)C4=C(O)C[C@H](C)[C@H](OC(C)=O)[C@]4(CO)O5)ccc(O)c3C(=O)C1=C(O)C[C@H](C)[C@@H]2OC(C)=O (stereo in doubt; 2) [listing 2 of 2 here]
- IC50 (AGS [1]; Homo sapiens, AGS, 48 h): 5.36 µM
- Ratio IC50 (AGS [2]): 2
- Activity (GES1): Non-toxic
